Literature values in patent publication US20200276209A1, “METHODS OF TREATING EPILEPSY OR STATUS EPILEPTICUS” (Sage Therapeutics, Inc., priority 2017, published 2020).
Read-outs that look alike come from different tables or passages of the source.

System: status epilepticus

| Structure (SMILES) | patients who did not respond to first line treatment (intravenous (IV) treatment) | patients who did not respond to first line treatment (intramuscular (IM) treatment) |
| --- | --- | --- |
| O=C1Nc2ccc(Cl)cc2C(c2ccccc2Cl)=NC1O (centres unmarked) [lorazepam] | 36.6% | – |
| Cc1ncc2n1-c1ccc(Cl)cc1C(c1ccccc1F)=NC2 [midazolam] | – | 26.6% |
